Legend:
[1] = test system: NANOG^iCasp9-YFP;ACTB^HSV-TK-mPlum hPSCs transplanted subcutaneously; test: Teratoma formation after AP20 pre-treatment of dual-safeguard hPSCs; type: in vivo, NOD-SCID Il2rg^−/− mice; details: pre-treatment with 1 nM AP20 before transplantation
Protocol: FIG. 5: Implementation of the ACTB^TK-mPlum safety switch. A) NANOG^iCasp9-YFP;ACTB^TK-mPlum hESCs were treated with ganciclovir (or left untreated) for 24 hours, and subsequently ganciclovir was withdrawn and hESCs were cultured for 1 week in mTeSR1 to detect any surviving cells and to allow them to regrow. […] N.D.=not detected. B) NANOG^iCasp9-YFP;ACTB^TK-mPlum hESCs were differentiated into day 6 liver, sclerotome and neural progenitors and treated with ganciclovir at the indicated doses for the last 24 hours of differentiation. Cell survival was analyzed by counting at day 6 of differentiation. C) 10^6 NANOG^iCasp9-YFP; ACTB^TK-mPlum hESCs engineered to express CAG-AkaLuciferase were treated with control media or 1 nM AP20187 for 24 hours, and then subcutaneously transplanted into the right and left dorsal flanks of NOD-SCID Il2rg^−/− mice (10^6 cells per flank). […] Total flux (photons/sec) was measured for each animal and were averaged.
In vivo teratoma formation. […] Teratoma growth was monitored throughout the duration of the experiment via visual inspection and bioluminescent imaging.
Bioluminescent imaging. […] Subsequent image analysis was done in Aura with regions of interest (ROIs) drawn for each mouse to calculate Total Flux (photons/sec) in order to quantify teratoma growth over time.

[2] = test system: ACTB^OiCasp9-mPlum;NANOG^iCasp9-YFP hPSCs and differentiated liver, bone and neural progenitors; test: Killing of ACTB^OiCasp9-mPlum;NANOG^iCasp9-YFP hPSCs and differentiated derivatives by AP21 or AP20 (alamar blue); type: cell-based, human; details: dual-transgenic line; 1 nM, 24 hours
Protocol: FIG. 6: Rationale, design and implementation of the ACTB^OiCasP9-mPlum safety switch. A) Intended application of the dual ACTB^OiCasp9-mPlum;NANOG^iCasp9-YFP safeguard. B) Cas9 RNP/AAV6-based knock-in strategy for ACTB^iCasp9-mPlum targeting, which was performed in the NANOG^iCasp9-YFP hESC line. C) 5×10^5 ACTB^OiCasp9-mPlum; NANOG^iCasp9-YFP hESCs were treated with control media or 1-1000 nM AP21967 for 24 hours. Cell viability was analyzed using alamar blue. D) ACTB^OiCasp9-mPlum;NANOG^iCasp9-YFP and ACTB^TK-mPlum; NANOG^iCasp9-YFP hESCs (negative control), in addition to their respective differentiated derivatives, were treated for 24 hours with 1 nM of AP21967. E) 5×10^5 ACTB^OiCasp9-mPlum; NANOG^iCasp9-YFP hESCs, and their respective differentiated derivatives, were treated with control media, 1 nM of AP21967 or and 1 nM of AP20187 for 24 hours. Surviving cells were analyzed by alamar blue. F) 10^6 ACTB^OiCasp9-mPlum;NANOG^iCasp9-YFP hESCs engineered to express CAG-AkaLuciferase were treated with control media or 1 nM AP20187 for 24 hours, and then subcutaneously transplanted into the right and left dorsal flanks of NOD-SCID Il2rg^−/− mice (10^6 cells per flank). 4 weeks post-transplant, teratomas formed and AP21967 was intraperitoneally administered once at 10 mg/kg. […] Total flux (photons/sec) was measured for each animal and was averaged.

CC[C@H](C(=O)N1CCCC[C@H]1C(=O)O[C@H](CCc1ccc(OC)c(OC)c1)c1cccc(OCC(=O)NCC(CNC(=O)COc2cccc([C@@H](CCc3ccc(OC)c(OC)c3)OC(=O)[C@@H]3CCCCN3C(=O)[C@@H](CC)c3cc(OC)c(OC)c(OC)c3)c2)CN(C)C)c1)c1cc(OC)c(OC)c(OC)c1 [AP20]
teratoma formation in vivo [1]: prevented them from forming teratomas in vivo | killing of undifferentiated and differentiated cells [2]: selectively kill undifferentiated hPSCs

Source: US20230085945A1, “ORTHOGONAL SAFETY SWITCHES TO ELIMINATE GENETICALLY ENGINEERED CELLS” (The Board of Trustees of the Leland Stanford Junior …, priority 2020, published 2023)
